Data set [1] deals with Staphylococcus aureus UC9213 or Streptococcus species. Kind of data set: Antimicrobial activity in vivo, Murine Assay (mice infected intraperitoneally with bacteria; ED50 from survival over six days). Conditions: 144 h, female mice, treatment one hour and five hours after infection. How it is done:
Antimicrobial activity was tested in vivo using the Murine Assay procedure. Groups of female mice (six mice of 18-20 grams each) were injected intraperitoneally with bacteria which were thawed just prior to use and suspended in brain heart infusion with 4% brewers yeast UC9213 (Staphylococcus aureus) or brain heart infusion (Streptococcus species). Antibiotic treatment at six dose levels per drug was administered one hour and five hours after infection by either oral intubation or subcutaneous ("subcut.") routes. Survival was observed daily for six days. ED50 values based on mortality ratios were calculated using probit analysis. The subject compounds were compared against a well-known antimicobial (Vancomycin) as a control.

Data set [2] is described as follows: Aqueous solubility (pH 7, phosphate buffer). It is filed as physicochemical.

In brackets after ≈: the same amount, converted by molar mass.

A word on the ED50: it is the midpoint of the dose-response relation. Read a low ED50 as an effect at a small dose. By solubility is commonly meant the concentration that dissolves in the medium under given conditions. For `CC(=O)NC[C@H]1CN(c2ccc(N3CCN(C(=O)COC(=O)CN4CCN(C)CC4)CC3)c(F)c2)C(=O)O1` [Example 13, (4-Methyl-1-piperazinyl)acetic acid, 2-[4-[4-[5-[(acetylamino)methyl]-2-oxo-3-oxazolidinyl]-2-fluorophenyl]-1-piperazinyl]-2-oxoethyl ester, (S)-], the ED50 in data set [1] (oral) was over 20 mg/kg; in data set [1] (sc, subcut.) it was over 20 mg/kg. Moreover, in data set [2], the solubility was determined as 79100 µg/mL (≈ 148 mM).
`CC(=O)NC[C@H]1CN(c2cc(F)c(N3CCN(C(=O)COC(C)=O)CC3)c(F)c2)C(=O)O1` [Example 14, Acetic acid, 2-(4-(4-(5-((acetylamino)methyl)-2-oxo-3-oxazolidinyl)-2,6-difluorophenyl)-1-piperazinyl)-2-oxoethyl ester, (S)]: in data set [1] (oral), the ED50 is 3 mg/kg. For the same molecule, the solubility in data set [2] was 1600 µg/mL (≈ 3.52 mM).
Take `CC(=O)NC[C@H]1CN(c2ccc(N3CCN(C(=O)COC(=O)CCC(=O)O)CC3)c(F)c2)C(=O)O1` [Example 17]: the median effective dose (ED50) in data set [1] (oral) was found to be 5 mg/kg; in data set [1] (sc, subcut.), 2 mg/kg. For the same molecule, in data set [2], the concentration in solution (solubility) came to 28000 µg/mL (≈ 56.6 mM).
The corresponding values for `CC(=O)CCC(=O)OCC(=O)N1CCN(c2c(F)cc(N3C[C@H](CNC(C)=O)OC3=O)cc2F)CC1` [Example 18, 4-Oxo-valeric acid, 2-(4-(4-(5-((acetylamino)methyl)-2-oxo-3-oxazolidinyl)-2,6-difluorophenyl)-1-piperazinyl)-2-oxoethyl ester, (S)] are 14 mg/kg, over 20 mg/kg and 1200 µg/mL (≈ 2.35 mM).
The corresponding values for `CC(=O)NC[C@H]1CN(c2ccc(N3CCN(C(=O)COP(=O)(O)O)CC3)c(F)c2)C(=O)O1` [Example 20, Phosphoric acid, 2-(4-(4-(5-((acetylamino)methyl)-2-oxo-3-oxazolidinyl)-2-fluorophenyl)-1-piperazinyl)-2-oxoethyl ester, (S)] are 6 mg/kg, 4 mg/kg and 25700 µg/mL (≈ 54.2 mM).
The corresponding values for `CC(=O)NC[C@H]1CN(c2ccc(N3CCN(C(=O)COC(=O)c4ccc(N)cc4)CC3)c(F)c2)C(=O)O1` [Example 21, 4-aminobenzoic acid, 2-[4-[4-[5-[(acetylamino)methyl]-2-oxo-3-oxazolidinyl]-2-fluorophenyl]-1-piperazinyl]-2-oxoethyl ester, (S)-] are 8 mg/kg, 13 mg/kg and 30 µg/mL (≈ 0.0584 mM).
Turning to `CC(=O)NC[C@H]1CN(c2ccc(N3CCN(C(=O)COC(=O)C(C)(CO)CO)CC3)c(F)c2)C(=O)O1` [Example 22, 2,2-bis(hydroxymethyl)propionic acid, 2-[4-[4-[5-[(acetylamino)methyl]-2-oxo-3-oxazolidinyl]-2-fluorophenyl]-1-piperazinyl]-2-oxoethyl ester, (S)-], the ED50 is over 18 mg/kg in data set [1] (oral) and 4 mg/kg in data set [1] (sc, subcut.). Besides, the concentration in solution in data set [2] (solubility) came to 13000 µg/mL (≈ 25.5 mM).
On the same counts, the results for `CC(=O)NC[C@H]1CN(c2ccc(N3CCN(C(=O)COC(=O)CO)CC3)c(F)c2)C(=O)O1` [Example 23, Hydroxyacetic acid, 2-[4-[4-[5[(acetylamino)methyl]-2-oxo-3-oxazolidinyl]-2-fluorophenyl]-1-piperazinyl]-2-oxoethyl ester, (S)] are 2 mg/kg, 1 mg/kg and 4200 µg/mL (≈ 9.28 mM).
The corresponding values for `COCC(=O)OCC(=O)N1CCN(c2ccc(N3C[C@H](CNC(C)=O)OC3=O)cc2F)CC1` [Example 25, Methoxyacetic acid, 2-(4-(4-(5-((acetylamino)methyl)-2-oxo3-oxazolidinyl)-2-fluorophenyl)-1-piperazinyl)-2-oxoethyl ester, (S)] are 8 mg/kg, 15 mg/kg and 6400 µg/mL (≈ 13.7 mM).
On the same counts, the results for `CC(=O)NC[C@H]1CN(c2cc(F)c(N3CCN(C(=O)COC(=O)CCN4CCOCC4)CC3)c(F)c2)C(=O)O1` [Example 26, 3-(N-morpholinyl)propionic acid, 2-(4-(4-(5-((acetylamino)methyl)-2-oxo-3-oxaxzolidinyl)-2,6-difluorophenyl)-1-piperazinyl)-2-oxoethyl ester, (S)] are 6 mg/kg, 3 mg/kg and 8200 µg/mL (≈ 14.8 mM).
Turning to `CC(=O)NC[C@H]1CN(c2ccc(N3CCN(C(=O)COC(=O)CN4CCOCC4)CC3)c(F)c2)C(=O)O1` [Example 27, (4-morpholinyl)acetic acid, 2-(4-(4-(5-((acetylamino)methyl)-2-oxo-3-oxazolidinyl)-2-fluorophenyl)-1-piperazinyl)-2-oxoethyl ester, (S)], it took a dose of 6 mg/kg to reach the 50% effect level in data set [1] (oral) (ED50). This molecule also had a solubility in data set [2] of 55300 µg/mL (≈ 106 mM).
As for `CC(=O)NC[C@H]1CN(c2ccc(N3CCN(C(=O)COC(=O)c4ccc(NC(=O)CN)cc4)CC3)c(F)c2)C(=O)O1` [Example 29, 4-N-(glycinyl)aminobenzoic acid, 2-[4-[4-[5-[(acetylamino)methyl]-2-oxo-3-oxazolidinyl]-2-fluorophenyl]-1-piperazinyl]-2-oxoethyl ester, (S)-], the 50% effect level in data set [1] (oral) (ED50) was put at a dose of 9 mg/kg. For the same molecule, the solubility in data set [2] turned out to be 9800 µg/mL (≈ 17.2 mM).

(Values after US5652238A, “Esters of substituted-hydroxyacetyl piperazine phenyl oxazolidinones” (Pharmacia & Upjohn Company, priority 1996, dated 1997).)
